Laboratory results: paper PMC12503911, “Cytotoxicity of Atropisomeric [1,1′‐Binaphthalene]‐2,2′‐Diamines (BINAM) and Analogs in Human Cancer Cells: Enantioselectivity, Structure–Activity Relationships, and Mechanism” (Chemmedchem, 2025)

Columns and labels:
ASK1 [1] = biological target: T1, ASK1 (Homo sapiens, UniProt Q99683); test: biochemical; design: 33PanQinase radiometric kinase activity assay, residual activity in % of control, contract lab Reaction Biology; details: mean of intraexperimental duplicates, n = 1; read-out: Residual activities [% of control] / 1(S) 10 µM
T1 construct: gene MAP3K5
T1 sequence (Q99683 1-1374): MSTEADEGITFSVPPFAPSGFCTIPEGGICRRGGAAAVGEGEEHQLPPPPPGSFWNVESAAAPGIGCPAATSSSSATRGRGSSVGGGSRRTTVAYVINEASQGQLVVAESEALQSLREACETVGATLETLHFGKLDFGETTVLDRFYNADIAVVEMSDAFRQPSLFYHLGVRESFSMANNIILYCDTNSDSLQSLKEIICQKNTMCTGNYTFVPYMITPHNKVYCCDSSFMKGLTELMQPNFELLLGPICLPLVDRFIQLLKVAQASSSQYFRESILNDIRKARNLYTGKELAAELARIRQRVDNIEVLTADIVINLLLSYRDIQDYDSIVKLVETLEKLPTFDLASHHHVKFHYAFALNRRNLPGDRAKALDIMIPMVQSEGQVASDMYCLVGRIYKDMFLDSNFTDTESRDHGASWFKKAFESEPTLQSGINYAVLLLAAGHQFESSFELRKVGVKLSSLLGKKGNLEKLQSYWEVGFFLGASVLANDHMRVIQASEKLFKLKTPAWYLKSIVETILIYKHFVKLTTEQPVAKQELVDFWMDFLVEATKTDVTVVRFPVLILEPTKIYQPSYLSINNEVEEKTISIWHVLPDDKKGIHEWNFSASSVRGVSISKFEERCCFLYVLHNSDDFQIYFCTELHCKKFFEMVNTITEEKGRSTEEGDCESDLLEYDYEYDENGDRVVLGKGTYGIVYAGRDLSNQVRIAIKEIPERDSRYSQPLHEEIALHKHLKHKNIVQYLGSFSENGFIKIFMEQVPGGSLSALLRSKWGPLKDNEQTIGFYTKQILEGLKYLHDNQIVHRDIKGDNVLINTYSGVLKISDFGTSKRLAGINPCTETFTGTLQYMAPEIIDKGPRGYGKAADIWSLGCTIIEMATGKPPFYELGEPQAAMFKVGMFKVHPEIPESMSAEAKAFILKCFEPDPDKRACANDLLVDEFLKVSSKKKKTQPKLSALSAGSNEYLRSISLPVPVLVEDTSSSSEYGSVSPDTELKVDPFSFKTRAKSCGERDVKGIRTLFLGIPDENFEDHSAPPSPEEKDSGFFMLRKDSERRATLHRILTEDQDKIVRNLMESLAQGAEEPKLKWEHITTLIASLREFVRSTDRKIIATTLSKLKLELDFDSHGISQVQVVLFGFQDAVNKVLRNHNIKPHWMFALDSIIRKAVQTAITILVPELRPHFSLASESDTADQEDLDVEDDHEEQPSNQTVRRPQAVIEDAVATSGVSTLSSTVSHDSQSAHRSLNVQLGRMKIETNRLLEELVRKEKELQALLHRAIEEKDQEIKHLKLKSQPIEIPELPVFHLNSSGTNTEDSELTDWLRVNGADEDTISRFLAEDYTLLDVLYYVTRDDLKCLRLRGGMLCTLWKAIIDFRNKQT

AuroraA = biological target: T2, AuroraA (Homo sapiens, UniProt O14965); test: […]PanQinase radiometric kinase assay (Reaction Biology); assay type: biochemical; details: read-out: Residual activities [% of control] / 1(R) 10 μM
T2 construct: gene AURKA
T2 sequence (O14965 1-403): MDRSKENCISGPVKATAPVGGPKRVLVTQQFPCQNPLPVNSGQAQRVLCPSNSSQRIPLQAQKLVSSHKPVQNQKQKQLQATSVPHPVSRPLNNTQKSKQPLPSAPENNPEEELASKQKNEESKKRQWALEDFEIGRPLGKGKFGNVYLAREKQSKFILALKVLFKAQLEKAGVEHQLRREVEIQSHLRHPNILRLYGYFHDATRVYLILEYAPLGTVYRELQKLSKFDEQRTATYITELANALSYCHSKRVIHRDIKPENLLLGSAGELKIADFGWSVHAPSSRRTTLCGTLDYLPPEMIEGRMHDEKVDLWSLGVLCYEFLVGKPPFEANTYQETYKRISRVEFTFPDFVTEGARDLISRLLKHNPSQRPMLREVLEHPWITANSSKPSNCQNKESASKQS

AuroraB = biological target: T3, AuroraB (Homo sapiens, UniProt Q96GD4); test: biochemical; design: 33PanQinase radiometric kinase activity assay, residual activity in % of control, contract lab Reaction Biology; details: mean of intraexperimental duplicates, n = 1; read-out: Residual activities [% of control] / 1(R) 10 µM
T3 construct: gene AURKB

ASK1 [2] = biological target: T1, ASK1; test: […]PanQinase radiometric kinase assay (Reaction Biology); assay type: biochemical; details: read-out: Residual activities [% of control] / 1(R) 10 μM

T3 sequence (Q96GD4 whole entry): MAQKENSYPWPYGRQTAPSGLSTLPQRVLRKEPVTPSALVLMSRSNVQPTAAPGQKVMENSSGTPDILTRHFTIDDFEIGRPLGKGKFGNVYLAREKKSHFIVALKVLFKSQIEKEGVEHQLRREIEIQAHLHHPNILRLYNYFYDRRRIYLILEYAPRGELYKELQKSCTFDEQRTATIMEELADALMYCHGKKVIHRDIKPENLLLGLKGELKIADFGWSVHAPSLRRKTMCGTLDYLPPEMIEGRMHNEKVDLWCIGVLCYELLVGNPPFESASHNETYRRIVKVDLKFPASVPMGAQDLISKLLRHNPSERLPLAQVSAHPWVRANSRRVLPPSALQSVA

SMILES	remaining activity at 10 µM (ASK1 [1])	remaining activity at 10 µM (AuroraA)	remaining activity at 10 µM (AuroraB)	remaining activity at 10 µM (ASK1 [2])
Nc1ccc2ccccc2c1-c1c(N)ccc2ccccc12 [1(S), S‐BINAM]	117%	–	–	–
Nc1ccc2ccccc2c1-c1c(N)ccc2ccccc12 [1(R), (R)‐[1,1′‐binaphthalene]‐2,2′‐diamine]	–	86%	101%	90%
